How the values were obtained:
Format in all cases: in vivo
[1] = system: cotton aphid (Aphis gossypii); assay: Test Example 7: cucumber root soaking, cotton aphid controlling value; details: 500 ppm, cucumber root soaked in 5 mL; inoculated one day after treatment; 7 days post the inoculation
Description: (§1) A formulation of the compound of the present invention that was prepared according to Formulation Example 5 was diluted with water so that the active ingredient concentration was set to 500 ppm to prepare a testing agent solution.
Soils were washed off from the cucumber seedlings (on the developmental stage of the first true leaf). The root of the cucumber seedlings was soaked in the above-mentioned test solutions 5 mL, and at one day after the treatment, thirty heads of cotton aphid (Aphis gossypii) (all stages of life) were inoculated onto the leaves of the cucumber. At 7 days post the inoculation, the number of the surviving insets that were parasitic on the leaves of the cucumber was examined, and the controlling value was calculated by the following equation. Controlling value (%)={1−(Cb×Tai)/(Cai×Tb)}×100 wherein the symbols in the formula represent the following descriptions.
Cb: Number of the insects before treatment in untreated area;
Cai: Number of the surviving parasitic insects at the time of the investigation in untreated area;
Tb: Number of the insects before treatment in treated area;
Tai: Number of the surviving parasitic insects at the time of the investigation in treated area;

[2] = system: cotton aphid (Aphis gossypii); assay: Test Example 6: cucumber seedling spray, cotton aphid controlling value; details: 500 ppm, 20 mL sprayed on cucumber seedling; 6 days post the spraying
Description: A formulation of the compound of the present invention that was prepared according to Formulation Example 5 was diluted with water so that the active ingredient concentration was set to 500 ppm to prepare a testing agent solution. Cucumber seedling on the developmental stage of the first true leaf) was planted in a plastic cup, and about 30 heads of cotton aphid (Aphis gossypii) were released onto the leaves of the cucumber and allowed to stand for 1 day. The above-mentioned test solutions 20 mL were sprayed into the seedling. At 6 days post the spraying, the number of the surviving insects that were parasitic on the leaves of the cucumber was examined and the controlling value was calculated by the following equation. Controlling value (%)={1−(Cb×Tai)/(Cai×Tb)}×100 wherein the symbols in the formula represent the following descriptions. Cb: Number of the insects before treatment in untreated area; Cai: Number of the surviving parasitic insects at the time of the investigation in untreated area; Tb: Number of the insects before treatment in treated area; Tai: Number of the surviving parasitic insects at the time of the investigation in treated area;

[3] = system: cabbage moth (Plutella xylostella); assay: Test Example 1: cabbage foliar spray, cabbage moth mortality; details: 120 h, 20 mL sprayed onto cabbage, second instar larvae, 25° C., after 5 days
Description: as §1
Twenty (20) mL of the above-mentioned testing medicinal solution was sprayed onto a cabbage (Brassicae oleracea) in the third to fourth leaf stage. After the testing medicinal solution was dried, the aerial part of the plant was cut, and then was installed in a polyethylene cup (volume 100 mL) together with five heads of cabbage moth (Plutella xylostella) at the second instar larval stages. The cup was held at 25° C. and after 5 days, the number of surviving insects was counted and the mortality was calculated according to the following equation. Mortality (%)=(Number of dead larvae/Number of tested larvae)×100

[4] = system: African malaria mosquito (Anopheles gambiae); assay: Test Example 11: topical application, African malaria mosquito mortality; details: 48 h, 167 ppm in acetone, 0.3 μL topically applied to pronotum of female adults, two days post the topical application, read-out: Mortality of insects
Description: Ten (10) mg of the compound of the present invention was dissolved into 3 mL of acetone. Further the agent solution was diluted with acetone to twenty times to prepare the testing agent solution (the active ingredient concentration 167 ppm). African malaria mosquito (Anopheles gambiae) adults were subjected to an anesthetic treatment with carbon dioxide gas, and then each of 0.3 μL of the above-mentioned testing agent solution was topically applied to a pronotum of a female insect. A test was carried out 10 heads per group, and after the topical application, the insects were transferred to a cup, and fed with 5% sugar solution. At two days post the topical application, the life and death of African malaria mosquito was examined, and the mortality of insects was calculated by the following equation. Mortality of insects (%)=(Number of dead insects)/(Number of tested insects)×100

[5] = system: two spotted spider mites (Tetranychus urticae); assay: Test Example 8: kidney bean spray, two spotted spider mite controlling value; details: 500 ppm, sprayed on kidney beans; female adults; 25° C.; 13 days post the treatment
Description: as §1
Forty (40) heads of female adult of two spotted spider mites (Tetranychus urticae) were released onto kidney beans (immediately after the development of the primary leaf). Next day, the above-mentioned test solutions were sprayed with a spray gun in the dripping amount of the chemical solution. The plants were placed in a thermostatic breeding room (25° C.), and at 13 days post the treatment, the number of the surviving insects was examined, and the controlling value was calculated by the following equation. Controlling value (%)={1−(Number of the surviving female adult insects in treated area}/(Number of the surviving female adult insects in untreated area)×100

[6] = system: rice planthopper (Nilaparvata lugens); assay: Test Example 4: rice seedling spray, rice planthopper controlling value; details: 500 ppm, 10 mL sprayed on rice seedling; three to four instar larvae; 25° C.; after 6 days
Description: (§2) A formulation of the compound of the present invention that was prepared according to Formulation Example 5 was diluted with water so that the active ingredient concentration was set to 500 ppm to prepare a testing agent solution. Rice seedling (on the developmental stage of the second true leaf) was planted in a polyethylene cup, and the above-mentioned test solutions 10 mL were sprayed. After the test solution was air-dried, twenty (20) heads of three to four instar larvae of rice planthopper (Nilaparvata lugens) were released and the plants were held in a greenhouse at 25° C. After 6 days, the number of the surviving insects that were parasitic on the leaves of the rice was examined and the controlling value was calculated by the following equation. Controlling value (%)={1−(Cb×Tai)/(Cai×Tb)}×100 wherein the symbols in the formula represent the following descriptions. Cb: Number of the insects before treatment in untreated area; Cai: Number of the surviving parasitic insects at the time of the investigation in untreated area; Tb: Number of the insects before treatment in treated area; Tai: Number of the surviving parasitic insects at the time of the investigation in treated area;

[7] = system: housefly (Musca domestica); assay: Test Example 9: filter paper with sucrose bait, housefly mortality; details: 0.7 mL on filter paper, female adults, after 24 hours, read-out: Mortality of insects
Description: (§3) A Formulation of the compound of the present invention that was prepared according to Formulation Example 5 was diluted with water so that the active ingredient concentration was set to 500 ppm to prepare a testing agent solution.
The bottom of the polyethylene cup having 5.5 cm diameter was matted with the same size of a filter paper, and 0.7 mL of the above-mentioned testing agent solution was added dropwise to the filter, and 30 mg of sucrose as bait was placed in the cup uniformly. Ten (10) heads of female adult housefly (Musca domestica) were released into the polyethylene cup and the cup was covered with the lid. After 24 hours, the life and death of housefly was examined, and the number of died insects was counted and the mortality of insects was calculated by the following equation. Mortality of insects (%)=(Number of dead insects/Number of tested insects)×100

[8] = system: common house mosquito (Culex pipiens pollens); assay: Test Example 10: larvae in treated water, common house mosquito mortality; details: active ingredient concentration of 3.5 ppm in water, final instar larvae, after 24 hours, read-out: Mortality of insects
Description: as §3
The above-mentioned testing agent solution 0.7 mL was added to 100 mL of ion-exchange water (the active ingredient concentration of 3.5 ppm). Twenty (20) heads of the final instar larvae of common house mosquito (Culex pipiens pollens) was released onto the above-mentioned solution. After 24 hours, the life and death of common house mosquito was examined, and the number of died insects was counted and the mortality of insects was calculated by the following equation. Mortality of insects (%)=(Number of dead insects)/(Number of tested insects)×100

[9] = system: rice planthopper (Nilaparvata lugens); assay: Test Example 5: rice seedling plant foot irrigation, rice planthopper controlling value; details: 500 ppm, 5 mL irrigated into plant foot of rice seedling; larvae released after 7 days; counted after 6 days
Description: as §2, with “solutions 5” for “solutions 10”, “were irrigated into” for “were sprayed. After”, “the plant foot, and the plants were held at 25° C. in a greenhouse for 7 days. Twenty” for “the test solution was air-dried, twenty”

[10] = system: tobacco cutworm (Spodoptera litura); assay: Test Example 2: artificial diet, tobacco cutworm mortality; details: 144 h, 2 mL on artificial diet Insecta LF, fourth instar larvae, after 6 days
Description: as §1
The bottom of the polyethylene cup having 5.5 cm diameter was matted with the same size of a filter paper. Insecta LF (manufactured by NOSAN CORPORATION), an artificial diet, was sliced to 6 mm in thickness, cut into half, and then placed on the filter paper. Then, 2 mL of the test solution was poured into the polyethylene cup. After the test solution was air-dried, 5 fourth instar larvae of tobacco cutworm (Spodoptera litura) were released into the polyethylene cup and the cup was sealed with a lid. After 6 days, the number of surviving tobacco cutworm (Spodoptera litura) was counted and the mortality was calculated according to the following equation. Mortality (%)=(Number of dead larvae/Number of tested larvae)×100

[11] = system: summer fruit tortrix (Adoxophyes orana); assay: Test Example 3: artificial diet, summer fruit tortrix mortality; details: 168 h, 1 mL on artificial diet SilkMate 2S, first instar larvae, after 7 days
Description: as §1
A filter paper having a diameter of 5.5 cm was spread on the bottom of a polyethylene cup having a diameter of 5.5 cm. SilkMate 2S (manufactured by NOSAN CORPORATION), an artificial diet, was sliced to 2 mm in thickness and then placed on the filter paper. Then, 1 mL of the test solution (500 ppm) was poured into the polyethylene cup. After the test solution was air-dried, the filter paper having a diameter of 5.5 cm was put on the artificial diet, and 30 first instar larvae of summer fruit tortrix (Adoxophyes orana) were released on the filter paper, and the cup was sealed with a lid. After 7 days, the number of surviving summer fruit tortrix was counted and mortality was calculated according to the following equation. Mortality (%)=(Number of dead larvae/Number of tested larvae)×100

CCc1ncnc(NCCc2ccc(C(F)(F)F)cc2)c1Cl [compound of the present invention]
≥ 80%: mortality at 500 ppm [3] | mortality at 500 ppm [10]
100%: mortality at 500 ppm [7]
≥ 90%: Controlling value [1] | Controlling value [2] | mortality at 167 ppm [4] | Controlling value [5] | Controlling value [6] | mortality at 3.5 ppm [8] | Controlling value [9] | mortality at 500 ppm [11]
